Legend:
[1] = target: T1, MglA–SspA complex (heterodimer) (Francisella tularensis, UniProt Q5NFG1+Q5NHJ6)
[2] = target: T1, MglA–SspA complex (heterodimer); test: biochemical

T1 sequence (Q5NFG1 1-205): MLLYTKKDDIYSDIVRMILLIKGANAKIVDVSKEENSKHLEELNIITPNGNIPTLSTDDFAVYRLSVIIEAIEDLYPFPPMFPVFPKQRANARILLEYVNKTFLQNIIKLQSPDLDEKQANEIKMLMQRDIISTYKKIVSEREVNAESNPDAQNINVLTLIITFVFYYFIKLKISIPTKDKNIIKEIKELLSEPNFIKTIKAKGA
T1 sequence (Q5NHJ6 1-210): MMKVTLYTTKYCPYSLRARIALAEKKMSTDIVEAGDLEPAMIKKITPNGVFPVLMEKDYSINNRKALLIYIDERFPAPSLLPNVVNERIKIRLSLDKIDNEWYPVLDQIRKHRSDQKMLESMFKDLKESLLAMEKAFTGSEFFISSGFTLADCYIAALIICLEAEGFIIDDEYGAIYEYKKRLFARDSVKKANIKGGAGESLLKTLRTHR

| Structure (SMILES) | DRaCALA competition against 32P-ppGpp [1] | Kd [2] [µM] |
| --- | --- | --- |
| Nc1nc2c(ncn2[C@@H]2O[C@H](COP(=O)(O)OP(=O)(O)OP(=O)(O)O)[C@@H](O)[C@H]2O)c(=O)[nH]1 [GTP] | GTP competed weakly, and ATP, CTP, and UTP showed no detectable competition |  |
| Nc1nc2c(ncn2[C@@H]2O[C@H](COP(=O)(O)OP(=O)(O)O)[C@@H](OP(=O)(O)OP(=O)(O)O)[C@H]2O)c(=O)[nH]1 [ppGpp] |  | ~12 |
